This is an account of results in US20220306603A1, “TARGETING DNA REPAIR IN TUMOR CELLS VIA INHIBITION OF ERCC1-XPF” (The Governors of the University of Alberta, priority 2019, published 2022).

Entries after “also recorded” stand apart in the source; their conditions may differ. Bounds are passed on as bounds.

The nature of data set [1]: Microsomal stability in vitro (human liver microsomes).
The subject of data set [2] is HCT116 cells. The data set is described as follows: Cellular repair of UV-induced cyclobutane pyrimidine dimers (immunofluorescence). Type of data set: cell-based, human.
Data set [3] concerns the target T1, ERCC1-XPF complex (Homo sapiens, UniProt Q92889).
T1 construct: His6; made in house; host or cells: E. coli BL21 (DE3)
T1 sequence (Q92889 1-916): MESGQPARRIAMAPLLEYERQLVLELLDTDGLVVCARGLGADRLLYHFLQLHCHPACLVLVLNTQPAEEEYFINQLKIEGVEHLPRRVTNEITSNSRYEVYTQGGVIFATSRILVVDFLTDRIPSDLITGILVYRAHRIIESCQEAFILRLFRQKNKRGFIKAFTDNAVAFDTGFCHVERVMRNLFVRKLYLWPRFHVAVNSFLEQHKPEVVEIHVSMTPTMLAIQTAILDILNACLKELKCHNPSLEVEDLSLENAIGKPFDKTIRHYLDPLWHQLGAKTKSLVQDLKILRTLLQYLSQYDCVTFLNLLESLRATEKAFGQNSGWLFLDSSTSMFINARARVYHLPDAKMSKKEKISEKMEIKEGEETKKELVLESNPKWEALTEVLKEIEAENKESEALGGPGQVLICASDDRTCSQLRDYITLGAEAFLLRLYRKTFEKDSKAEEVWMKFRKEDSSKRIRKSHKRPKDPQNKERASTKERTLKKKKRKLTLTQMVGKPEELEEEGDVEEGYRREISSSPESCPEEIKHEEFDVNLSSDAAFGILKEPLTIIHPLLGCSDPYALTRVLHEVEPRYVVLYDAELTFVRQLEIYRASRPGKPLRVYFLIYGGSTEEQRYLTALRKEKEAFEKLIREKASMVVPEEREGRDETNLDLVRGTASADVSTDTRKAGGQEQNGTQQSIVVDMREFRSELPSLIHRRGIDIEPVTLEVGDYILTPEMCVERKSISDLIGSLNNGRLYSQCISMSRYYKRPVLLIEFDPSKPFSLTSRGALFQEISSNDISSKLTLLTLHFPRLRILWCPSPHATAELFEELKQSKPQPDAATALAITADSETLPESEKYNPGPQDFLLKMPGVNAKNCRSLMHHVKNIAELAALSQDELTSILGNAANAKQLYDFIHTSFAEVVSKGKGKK
Briefly: Steady-state intrinsic tryptophan fluorescence quenching binding assay. The conditions noted are these: 2 μM compound; excitation 295 nm. How it is done:
Steady-state fluorescence spectra were measured at room temperature on a Perkin-Elmer LS-55 spectrofluorometer (Freemont, Calif.) with 5 nm spectral resolution for excitation and emission using 30-80 nM solution of purified recombinant ERCC1-XPF protein complex. […] In studying the effects of inhibitors on protein fluorescence intensities, additions to protein samples were made from inhibitors stock solutions, keeping the protein dilution below 3%.

In data set [4] the test system is five CYP450 tested enzymes. The data set is described as follows: ADME screening: CYP inhibition (five CYP450 enzymes). The conditions noted are these: Table 8.
Data set [5] relates to five CYP450 enzymes (CYP1A2, CYP2C9, CYP2C19, CYP2D6, CYP3A4-M). The data set is described as above. As to conditions: human.
Data set [6] has as its system HCT116 cells. Briefly: Clonogenic survival assay, UV treatment. The class given is cell-based, human. The conditions noted are these: 254 nm UV 0-10 J/m^2; compound 0.5-4 μM. How it is done:
UV treatment: HCT116 cells (100-800 cells depending on the UV dose) were plated in triplicate in 60-mm petri dishes. The cells were incubated overnight at 37° C. in a humidified atmosphere containing 5% CO2 to allow for cell attachment. […] Medium was removed again, and cells were exposed to increasing doses (0-10 J/m^2) of UV-C radiation and then incubated for a further 10 days in the presence of inhibitor at 37° C. in a 5% CO2 atmosphere to allow for colony formation. After this period plates were stained with crystal violet and colonies were counted using a Colcount instrument (Oxford Optronix, Abingdon UK). Finally, plating efficiency and surviving fraction were calculated.

Data set [7] in a line: ADME screening: cell permeability and efflux ratio. The conditions noted are these: Table 8.
Data set [8] is described as follows: ADME screening: LogD. The conditions noted are these: Table 8.

For `COc1ccc2nc3cc(Cl)ccc3c(Nc3ccc(O)c(CN4CCN(CCN(C)C)CC4)c3)c2c1` [Compound A4, 4-((6-Chloro-2-methoxyacridin-9-yl)amino)-2-((4-(2-(dimethylamino)ethyl)piperazin-1-yl)methyl) phenol], the “metabolism on exposure to human liver microsomes (in words)” value in data set [1] is recorded as “metabolism in the midrange”. The “Microsomal stability in vitro CLint (in words)” value in data set [1] (Table 8) is listed as “Low”. The “inhibition of cellular removal of CPDs / thymidine dimers (in words)” value in data set [2] (8 J/m^2 UV-C, up to 24 h post-irradiation) is recorded as “significantly different; also recorded: significant inhibition of removal of CPDs”. Also, in data set [2] (8 J/m^2 UV, control approximately 80%), the “CPDs removed over 24 hours after UV exposure” value is “approximately 60%”. For the same compound, in data set [3], the “quenching of protein fluorescence at 330 nm” value is approximately 23±2%. Besides, the “CVP inhibition (5 enzyme) (rating)” value in data set [4] was “Good”. The compound further registered an IC50 in data set [5] not below 1000 nM. In addition, the “sensitisation to UV radiation, clonogenic survival (in words)” value in data set [6] was “significantly reduced survival”. In addition, the “Cell permeability (Mean recovery %) (in words)” value in data set [7] was “Low”. Moreover, in data set [8], the “LogD (rating)” value was “Good” and the logD is 2.86.
